Data: patent publication US7858637B2, “Administration of TLR7 ligands and prodrugs thereof for treatment of infection by hepatitis C virus” (priority 2003, dated 2010)
Structures can show the parent of a compound that is named as a salt.

Columns and labels:
[1] = test system: interferon alpha; experiment: Interferon alpha plasma concentrations in mice; assay type: in vivo, mouse
From the text: Not only can one measure the plasma concentrations of isatoribine arising from oral administration of the said prodrug(s) but also the extensive immunological research conducted in the mouse has provided reagents suitable for measuring the levels of interferon alpha, a cytokine of interest reflecting one of the desired biologic activities of isatoribine.

[2] = Toxicology studies, GI tolerance in beagle dogs; assay type: in vivo, beagle dog; conditions: dogs, oral val-isatoribine
From the text: We compared in the dog the oral toxicology of 21 and 24, and the intravenous toxicology of 21. We observed that the oral toxicology of 24 was much more like intravenous 21 than it was like oral 21.

[3] = test system: human peripheral blood mononuclear cells (PBMC); experiment: PBMC assay of interferon alpha release (masking); assay type: cell-based; conditions: Homo sapiens, PBMC; Table 9; 100 μM; 8 hours exposure; same blood donor; read-out: Amount of INFa relative to that induced by isatoribine at 100 μM
Method: A typical experiment would use human peripheral blood mononuclear cells (PBMC) isolated from a healthy donor and placed in replicate cell culture wells; typically, 2×10^6 to 5×10^6 cells are placed in each well. The PBMC are incubated in the absence of test compounds at 37° C. in a humidified atmosphere containing 5% CO2 for 24 hours to allow stabilization to the culture conditions, and then 100 micromolar isatoribine, the TLR7 ligand and a corresponding TLR7 ligand prodrug are added to separate wells containing PBMC from the same donor; untreated controls are included. The concentrations of TLR7 ligand and TLR7 ligand prodrug may be varied to suit the particular experiment, and the PBMC cultures are then incubated at 37° C. in a humidified atmosphere containing 5% CO2 for a period of time ranging from two hours to 48 hours. Samples of cell culture supernate media are taken during the incubation. These are assayed for cytokine production by ELISA. Additionally the amount of TLR7 ligand and TLR7 ligand prodrug remaining at the end of the incubation may be assayed by LC-MS. Cytokine production is calculated relative to production in the isatoribine control, following subtraction of the cytokine production in untreated controls.
Thus, if the TLR7 ligand generates more interferon alpha (a conveniently measured cytokine) than does the corresponding TLR7 ligand prodrug after a similar duration of exposure and concentration, the TLR7 ligand prodrug may be deemed a “masked” TLR7 ligand prodrug.

[4] = isatoribine equivalent applied dose 8.1 mg/kg
[5] = isatoribine equivalent applied dose 16 mg/kg
[6] = isatoribine equivalent applied dose 32 mg/kg
[7] = isatoribine equivalent applied dose 64 mg/kg

Structure (SMILES): CC(C)[C@H](N)C(=O)OC[C@H]1O[C@@H](n2c(=O)sc3c(O)nc(N)nc32)[C@H](O)[C@@H]1O [Compound 24, 5-Amino-3-(5′-O-L-valinyl-β-D-ribofuranosyl)thiazolo[4,5-d]pyrimidine-2,7-dione Dihydrochloride]
- increase of the magnitude of both the average and peak interferon response over isatoribine ([1]; mice, oral dosing): 100%
- levels of isatoribine and interferon relative to those after intravenous isatoribine ([1]; mice, oral, 50 mg/kg isatoribine molar equivalent vs intravenous isatoribine 25 mg/kg, FIG. 1): approximately 50%
- mice with detectable interferon in their plasma ([1]; oral dosing, data of Tables 15, 16 and 17): 10 of the 30
- Emesis or loose stool [2, 4]: Neg.
- GI lesions or irritation [2, 4]: Neg.
- Emesis or loose stool [2, 5]: Neg.
- GI lesions or irritation [2, 5]: Neg.
- Emesis or loose stool [2, 6]: Neg.
- GI lesions or irritation [2, 6]: Neg.
- Emesis or loose stool [2, 7]: Neg.
- GI lesions or irritation [2, 7]: Neg.
- GI lesions or irritation ([2]; isatoribine equivalent applied dose 130 mg/kg): Neg.
- GI lesions or irritation ([2]; isatoribine equivalent applied dose 260 mg/kg): Neg.
- GI lesions or irritation ([2]; isatoribine equivalent applied dose 390 mg/kg): Neg.
- Emax at 100 µM [3]: 1%
